Data: ChEMBL document CHEMBL1150518, “Balanced angiotensin II receptor antagonists. III. The effects of substitution at the imidazole 5-position” (Bioorg Med Chem Lett, 1994)

Legend:
[1] = target: T1, Type-2 angiotensin II receptor (Homo sapiens, UniProt P50052); assay: Binding affinity for angiotensin II AT-2 receptor
T1 sequence (P50052 whole entry): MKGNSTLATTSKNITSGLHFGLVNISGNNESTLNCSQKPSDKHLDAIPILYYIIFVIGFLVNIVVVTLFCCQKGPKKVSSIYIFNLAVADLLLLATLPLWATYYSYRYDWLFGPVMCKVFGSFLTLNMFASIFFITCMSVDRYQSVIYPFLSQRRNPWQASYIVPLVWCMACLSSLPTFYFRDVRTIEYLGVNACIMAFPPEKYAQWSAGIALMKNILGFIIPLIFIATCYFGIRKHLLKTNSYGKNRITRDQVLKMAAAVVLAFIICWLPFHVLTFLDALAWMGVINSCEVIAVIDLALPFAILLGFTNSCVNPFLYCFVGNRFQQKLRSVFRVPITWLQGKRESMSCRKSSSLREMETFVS

[2] = target: T2, Type-1 angiotensin II receptor (Homo sapiens, UniProt P30556); assay: Binding affinity for Angiotensin II receptor, type 1
T2 sequence (P30556 whole entry): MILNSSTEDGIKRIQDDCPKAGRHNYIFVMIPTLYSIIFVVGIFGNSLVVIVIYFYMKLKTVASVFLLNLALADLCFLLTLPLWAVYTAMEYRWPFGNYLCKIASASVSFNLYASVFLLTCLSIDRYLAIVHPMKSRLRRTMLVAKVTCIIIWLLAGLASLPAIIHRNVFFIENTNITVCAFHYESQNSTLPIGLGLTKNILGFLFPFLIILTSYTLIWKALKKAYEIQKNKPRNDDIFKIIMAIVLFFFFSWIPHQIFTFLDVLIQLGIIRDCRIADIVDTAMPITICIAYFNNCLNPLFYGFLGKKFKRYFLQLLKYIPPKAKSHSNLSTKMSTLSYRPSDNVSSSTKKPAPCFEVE

| Structure (SMILES) | IC50 [1] | IC50 [2] |
| --- | --- | --- |
| CCCc1nc(CC)c(C(=O)OCc2ccc(C(=O)c3ccccc3)cc2)n1Cc1ccc(-c2ccccc2-c2nn[nH]n2)cc1 | 2000 nM | 9 nM |
| CCCc1nc(CC)c(C(=O)OCc2ccccc2NC(=O)c2ccccc2)n1Cc1ccc(-c2ccccc2S(=O)(=O)NC(=O)OCCC(C)C)cc1F | 1 nM | 0.3 nM |
| CCCc1nc(CC)c(C(=O)OCCCCOc2ccccc2)n1Cc1ccc(-c2ccccc2S(=O)(=O)NC(=O)OCCC(C)C)cc1F | 2 nM | 0.2 nM |
| CCCc1nc(CC)c(C(=O)OCCN(C(=O)OCCC(C)C)c2ccccc2)n1Cc1ccc(-c2ccccc2S(=O)(=O)NC(=O)OCCC(C)C)cc1F | 4 nM | 0.2 nM |
| CCCc1nc(CC)c(C(=O)OCc2ccccc2-c2ccccn2)n1Cc1ccc(-c2ccccc2S(=O)(=O)NC(=O)OCCC(C)C)cc1F | 3 nM | 0.3 nM |
| CCCc1nc(CC)c(C(=O)OCc2ccccc2C(=O)c2ccccc2)n1Cc1ccc(-c2ccccc2S(=O)(=O)NC(=O)OC)cc1 | 10 nM | 0.6 nM |
| CCCc1nc(CC)c(C(=O)OCCN(C(=O)c2ccccc2)c2ccccc2)n1Cc1ccc(-c2ccccc2S(=O)(=O)NC(=O)OCCC(C)C)cc1F | 2 nM | 0.1 nM |
| CCCc1nc(CC)c(C(=O)OCCC(=O)Nc2ccccc2)n1Cc1ccc(-c2ccccc2S(=O)(=O)NC(=O)OCCC(C)C)cc1F | 3 nM | 0.1 nM |
| CCCCN(Cc1ccccc1)C(=O)c1ccc(COC(=O)c2c(CC)nc(CCC)n2Cc2ccc(-c3ccccc3-c3nn[nH]n3)cc2)cc1 | 200 nM | 8 nM |
| CCCc1nc(CC)c(C(=O)OCc2cccc(C(=O)N(c3ccccc3)c3ccccc3)c2)n1Cc1ccc(-c2ccccc2-c2nn[nH]n2)cc1 | 300 nM | 30 nM |
| CCCCN(CCCC)C(=O)CCCOC(=O)c1c(CC)nc(CCC)n1Cc1ccc(-c2ccccc2-c2nnn[nH]2)cc1 | 500 nM | 30 nM |
| CCCc1nc(CC)c(C(=O)NCCCOc2ccccc2)n1Cc1ccc(-c2ccccc2S(=O)(=O)NC(=O)OCCC(C)C)cc1F | 9 nM | 0.3 nM |
| CCCOC(=O)NS(=O)(=O)c1ccccc1-c1ccc(Cn2c(CCC)nc(CC)c2C(=O)OCc2ccccc2-c2cncnc2)c(F)c1 | 10 nM | 0.8 nM |
| CCCCN(Cc1ccccc1)C(=O)CCCOC(=O)c1c(CC)nc(CCC)n1Cc1ccc(-c2ccccc2-c2nn[nH]n2)cc1 | 300 nM | 10 nM |
| CCCc1nc(CC)c(C(=O)OCc2ccccc2C(=O)c2ccccc2)n1Cc1ccc(-c2ccccc2S(=O)(=O)NC(=O)OCCC(C)C)cc1 | 1.9 nM | 0.35 nM |
| CCCc1nc(CC)c(C(=O)OCc2ccc(-c3ccccc3)cc2)n1Cc1ccc(-c2ccccc2-c2nnn[nH]2)cc1 | 3000 nM | 3 nM |
| CCCc1nc(CC)c(C(=O)OCc2ccccc2-c2ccccc2)n1Cc1ccc(-c2ccccc2-c2nnn[nH]2)cc1 | 2000 nM | 3 nM |
| CCCOC(=O)NS(=O)(=O)c1ccccc1-c1ccc(Cn2c(CCC)nc(CC)c2C(=O)OCc2ccccc2-c2cccs2)c(F)c1 | 3 nM | 0.5 nM |
| CCCCCOC(=O)NS(=O)(=O)c1ccccc1-c1ccc(Cn2c(CCC)nc(CC)c2C(=O)OCCC(=O)Nc2ccccc2)c(F)c1 | 1 nM | 0.1 nM |
| CCCc1nc(CC)c(C(=O)NCc2ccccc2Sc2ccccc2)n1Cc1ccc(-c2ccccc2S(=O)(=O)NC(=O)OCCC(C)C)cc1F | 3 nM | 0.4 nM |
| CCCc1nc(CC)c(C(=O)OCc2ccccc2OCCC(C)C)n1Cc1ccc(-c2ccccc2S(=O)(=O)NC(=O)OCCC(C)C)cc1F | 10 nM | 3 nM |
| CCCc1nc(CC)c(C(=O)OCCCS(=O)(=O)c2ccccc2)n1Cc1ccc(-c2ccccc2S(=O)(=O)NC(=O)OCCC(C)C)cc1F | 2 nM | 0.2 nM |
| CCCCCCCOC(=O)NS(=O)(=O)c1ccccc1-c1ccc(Cn2c(CCC)nc(CC)c2C(=O)OCc2ccccc2OC)c(F)c1 | 10 nM | 1 nM |
| CCCc1nc(CC)c(C(=O)OCc2ccc(C(=O)N(c3ccccc3)c3ccccc3)cc2)n1Cc1ccc(-c2ccccc2-c2nnn[nH]2)cc1 | 200 nM | 20 nM |
| CCCCN(Cc1ccccc1)C(=O)C#CCOC(=O)c1c(CC)nc(CCC)n1Cc1ccc(-c2ccccc2-c2nnn[nH]2)cc1 | 400 nM | 10 nM |
| CCCc1nc(CC)c(C(=O)OCc2ccccc2C(=O)C(C)(C)C)n1Cc1ccc(-c2ccccc2S(=O)(=O)NC(=O)OCCC(C)C)cc1F | 3 nM | 0.3 nM |

| Structure (SMILES) | IC50 [1] | IC50 [2] |
| --- | --- | --- |
| CCCOC(=O)NS(=O)(=O)c1ccccc1-c1ccc(Cn2c(CCC)nc(CC)c2C(=O)OCc2cccc(C(=O)c3ccccc3)c2)c(F)c1 | 10 nM | 0.3 nM |
| CCCc1nc(CC)c(C(=O)OCCN2C(=O)c3ccccc3C2=O)n1Cc1ccc(-c2ccccc2S(=O)(=O)NC(=O)OCCC(C)C)cc1F | 7 nM | 0.2 nM |
| CCCc1nc(CC)c(C(=O)OCCC[S+]([O-])c2ccccc2)n1Cc1ccc(-c2ccccc2S(=O)(=O)NC(=O)OCCC(C)C)cc1F (centres undefined) | 1 nM | 0.2 nM |
| CCCc1nc(CC)c(C(=O)NCc2ccccc2[S+]([O-])c2ccccc2)n1Cc1ccc(-c2ccccc2S(=O)(=O)NC(=O)OCCC(C)C)cc1F (centres undefined) | 5 nM | 0.6 nM |
| CCCc1nc(CC)c(C(=O)OCCCC(=O)Nc2ccccc2)n1Cc1ccc(-c2ccccc2S(=O)(=O)NC(=O)OCCC(C)C)cc1F | 5 nM | 0.2 nM |
| CCCc1nc(CC)c(C(=O)OCCCOc2ccccc2)n1Cc1ccc(-c2ccccc2S(=O)(=O)NC(=O)OCCC(C)C)cc1F | 2 nM | 0.1 nM |
| CCCCOC(=O)NS(=O)(=O)c1ccccc1-c1ccc(Cn2c(CCC)nc(CC)c2C(=O)NCCCOc2ccccc2)c(F)c1 | 20 nM | 0.4 nM |
| CCCc1nc(CC)c(C(=O)OCc2ccccc2C(=O)c2ccccc2)n1Cc1ccc(-c2ccccc2S(=O)(=O)NC(=O)OCCc2ccccc2)cc1 | 2.1 nM | 0.74 nM |
| CCCc1nc(CC)c(C(=O)OCc2ccccc2C(=O)c2ccccc2)n1Cc1ccc(-c2ccccc2-c2nnn[nH]2)cc1 | 300 nM | 2 nM |
| CCCc1nc(CC)c(C(=O)OCc2ccccc2OC)n1Cc1ccc(-c2ccccc2S(=O)(=O)NC(=O)OCCC(C)C)cc1F | 1 nM | 0.1 nM |
| CCCc1nc(CC)c(C(=O)OCc2ccccc2-c2ccccc2)n1Cc1ccc(-c2ccccc2S(=O)(=O)NC(=O)OCCC(C)C)cc1F | 9 nM | 3 nM |
| CCCc1nc(CC)c(C(=O)OCCCN2C(=O)c3ccccc3C2=O)n1Cc1ccc(-c2ccccc2S(=O)(=O)NC(=O)OCCC(C)C)cc1F | 3 nM | 0.1 nM |
| CCCc1nc(CC)c(C(=O)OCc2ccccc2C(=O)Nc2ccccc2)n1Cc1ccc(-c2ccccc2S(=O)(=O)NC(=O)OCCC(C)C)cc1F | 1 nM | 0.3 nM |
| CCCCN(Cc1ccccc1)C(=O)CCCOC(=O)c1c(CC)nc(CCC)n1Cc1ccc(-c2ccccc2S(=O)(=O)NC(=O)OCCC(C)C)cc1F | 5 nM | 0.2 nM |
| CCCc1nc(CC)c(C(=O)OCC(=O)c2ccccc2)n1Cc1ccc(-c2ccccc2S(=O)(=O)NC(=O)OCCC(C)C)cc1F | 2 nM | 0.1 nM |
| CCCc1nc(CC)c(C(=O)OCc2ccccc2C(=O)c2ccccc2)n1Cc1ccc(-c2ccccc2S(=O)(=O)NC(=O)OCCc2ccccc2)cc1F | 0.69 nM | 0.57 nM |
| CCCc1nc(CC)c(C(=O)OCc2cccc(C(=O)c3ccccc3)c2)n1Cc1ccc(-c2ccccc2S(=O)(=O)NC(=O)OCCC(C)C)cc1F | 0.9 nM | 0.6 nM |
| CCCOC(=O)NS(=O)(=O)c1ccccc1-c1ccc(Cn2c(CCC)nc(CC)c2C(=O)OCc2ccccc2-c2ccsc2)c(F)c1 | 20 nM | 0.3 nM |
| CCCCOC(=O)NS(=O)(=O)c1ccccc1-c1ccc(Cn2c(CCC)nc(CC)c2C(=O)OCc2ccccc2Oc2ccccc2)c(F)c1 | 3 nM | 0.6 nM |
| CCCc1nc(CC)c(C(=O)OCc2cccc(C(=O)c3ccccc3)c2)n1Cc1ccc(-c2ccccc2-c2nn[nH]n2)cc1 | 1000 nM | 9 nM |
| CCCc1nc(CC)c(C(=O)OCc2ccccc2C(=O)c2ccccc2)n1Cc1ccc(-c2ccccc2S(=O)(=O)NC(=O)OCC(C)C)cc1F | 1 nM | 0.5 nM |
| CCCc1nc(CC)c(C(=O)OCc2ccccc2[S+]([O-])c2ccccc2)n1Cc1ccc(-c2ccccc2S(=O)(=O)NC(=O)OCCC(C)C)cc1F (centres undefined) | 2 nM | 0.2 nM |
| CCCc1nc(CC)c(C(=O)OCC#CC(=O)N(c2ccccc2)c2ccccc2)n1Cc1ccc(-c2ccccc2-c2nn[nH]n2)cc1 | 600 nM | 40 nM |
| CCCc1nc(CC)c(C(=O)OCc2ccccc2-c2cccs2)n1Cc1ccc(-c2ccccc2S(=O)(=O)NC(=O)OCCC(C)C)cc1F | 3 nM | 0.8 nM |
| CCCc1nc(CC)c(C(=O)OCc2ccccc2-c2ccsc2)n1Cc1ccc(-c2ccccc2S(=O)(=O)NC(=O)OCCC(C)C)cc1F | 20 nM | 0.6 nM |
| CCCc1nc(CC)c(C(=O)OC(C(=O)c2ccccc2)c2ccccc2)n1Cc1ccc(-c2ccccc2S(=O)(=O)NC(=O)OCCC(C)C)cc1F (centres undefined) | 3 nM | 0.8 nM |
